Assay results taken from paper PMC12643529 (ACS Infectious Diseases, 2025).

Legend:
[1] = test system: FMycT (DNA, G4) TTGAGGGTGGGTAGGGTGGGTAA; assay: FRET melting; settings: K+ (1 mM KCl), 99 mM LiCl; 10 mM Li cacodylate; compound 10 µM, DNA 200 nM
[2] = test system: F10T (hairpin duplex DNA); type: binding; settings: ligand 10 μM, oligonucleotide 200 nM, 10 mM KCl
MRC-5 cells = assay: alamarBlue cytotoxicity assay, MRC-5; type: cell-based; settings: 72 h
[3] = test system: F21T (DNA, G4) GGGTTAGGGTTAGGGTTAGGG; assay: FRET melting; settings: 10 mM Li cacodylate, compound 10 µM, DNA 200 nM
HeLa cells = assay: alamarBlue antiproliferative assay, HeLa; type: cell-based, human; settings: for IC50: Homo sapiens, HeLa, 72 h, alamarBlue; for selectivity index (SI) HeLa: SI = IC50 MRC-5/IC50 HeLa
[4] = test system: F21T K+ (human telomeric G-quadruplex, potassium buffer); type: binding; settings: ligand 10 μM, oligonucleotide 200 nM, 10 mM KCl
[5] = test system: FEbr1T (T. brucei G-quadruplex); assay: FRET melting assay, FEbr1T; type: binding; settings: ligand 10 μM, oligonucleotide 200 nM, 10 mM KCl
HT-29 cells = assay: alamarBlue antiproliferative assay, HT-29; type: cell-based, human; settings: for IC50: Homo sapiens, HT-29, 72 h, alamarBlue; for selectivity index (SI) HT-29: SI = IC50 MRC-5/IC50 HT-29
[6] = test system: promastigote form of L. major; assay: MTT-based antileishmanial assay, promastigotes; type: cell-based, Leishmania major; settings: for IC50: promastigotes, 72 h, MTT, error as σ; for selectivity index (SI) L. major: SI = IC50 MRC-5/IC50 L. major promastigotes
Experimental: The antileishmanial activity of the compounds against the promastigote form of L. major, the […] was determined using an MTT-based assay (Sigma-Aldrich). Stock solutions of the compounds were prepared in DMSO with the final DMSO percentage in each well maintained below 1%. 4 × 10^6 parasites per mL were incubated at 28 °C in 96-well plates (50 μL/well) either alone or in the presence of increasing concentrations of compounds DMSO for 72 h. After the incubation period, 10 μL of MTT (5 mg/mL) was added to each well, and the parasites were incubated for 4 h at 28 °C. Subsequently, cell lysis was performed using 50 μL/well of 20% SDS. […] Data were presented as the average of at least three independent measurements, each conducted under triplicate conditions. […] “single marker” […] S7

[7] = test system: F21T Na+ (human telomeric G-quadruplex, sodium buffer); type: binding; settings: ligand 10 μM, oligonucleotide 200 nM, 100 mM NaCl
[8] = test system: Fmt6363T (human mitochondrial G-quadruplex); assay: FRET melting assay, Fmt6363T; type: binding; settings: ligand 10 μM, oligonucleotide 200 nM, 10 mM KCl
[9] = test system: bloodstream form of T. brucei; assay: alamarBlue (resazurin) antitrypanosomal assay; type: cell-based, Trypanosoma brucei; settings: for IC50: bloodstream form, 72 h, alamarBlue/resazurin, error as σ; for selectivity index (SI) T. brucei: SI = IC50 MRC-5/IC50 T. brucei (resazurin assay)
[10] = test system: FMycT (c-Myc promoter G4); assay: FRET melting assay, FMycT; type: binding; settings: ligand 10 μM, oligonucleotide 200 nM, 1 mM KCl
THP-1 cells = assay: alamarBlue cytotoxicity assay, PMA-differentiated THP-1; type: cell-based, human; settings: PMA-differentiated THP-1, 72 h
[11] = test system: intracellular amastigote form of L. major; assay: Luciferase assay, intracellular amastigotes in THP-1 macrophages; type: cell-based, Leishmania major; settings: for IC50: intracellular amastigotes in THP-1 macrophages, 72 h, luciferase; for selectivity index (SI) THP-1: SI = IC50 THP-1/IC50 L. major amastigotes
Experimental: The antileishmanial activity of the compounds against the intracellular form of L. major was evaluated using the Luciferase Assay System kit from Promega. THP-1 cells were seeded at a density of 3 × 10^5 cells/mL in 96-well plates (100 μL/well) and treated with 20 ng/mL PMA (phorbol 12-myristate 13-acetate, Sigma) for 48 h to induce differentiation. Postdifferentiation, the cells were washed, and fresh medium was added (100 μL/well) before being reincubated. Following an additional 24 h, the wells were washed, and 50 μL of L. major parasites at a density of 1.5 × 10^6 parasites/mL (suspended in RPMI-1640 medium 5% hiFBS and 5% penicillin/streptomycin) were added to the wells. The plates were then incubated at 35 °C in 5% CO2. After 24 h, the wells were washed three times with PBS, and fresh medium with increasing concentrations of compounds was added (100 μL/well). After another 72 h of incubation, the cells were then treated with 25 μL of lysis buffer and stored at −80 °C. Following 24 h, 25 μL of luciferase enzyme substrate was added to each well, and the luciferase activity of the amastigotes was determined using a TECAN Infinite F200 microplate reader. […] Data were presented as the average of at least three independent measurements, each conducted under triplicate conditions.
Parasite and cell culturing […]
Leishmania major (MHOM/IL/80/Friedlin) promastigotes and its derivative luminescent strain L. major LucRE9 with the luciferase gene integrated into the parasite genome (LUC) were cultured at 28 °C, 5 % CO2 in modified RPMI-1640 medium (Invitrogen, Carlsbad, CA) supplemented with 10 % hiFBS6, including […] blasticidin in the LucRE9 strain. 7 Parasites were maintained in culture in their […] growth phase (below 2 million T. brucei parasites per mL, ,10 million L. major parasites per mL for promastigotes experiments), and in the stationary phase , 20 million L. major parasites per mL for THP -1 infection experiments.
MRC-5 cell line (human lung fibroblast) was grown in monolayer at 37 °C, 5 % CO2 in DMEM medium (1 g/L glucose) supplemented with 10% hiFBS, 100 U/mL penicillin, […] streptomycin and 2 mM L-glutamine.8
THP-1 cells (human monocytic cell line) were maintained in RPMI-1640 medium supplemented with 10% heat-inactivated fetal bovine serum (hiFBS) and 5 % penicillin/streptomycin (37 °C, 5 % CO2, and 100 % humidity). […]

[12] = test system: FEbr1T (DNA, G4) GGGCAGGGGGTGATGGGGAGGAGCCAGGG; assay: FRET melting; settings: K+ (10 mM KCl), 90 mM LiCl; 10 mM Li cacodylate; compound 10 µM, DNA 200 nM

Row | SMILES | ΔTm F10T [2] | IC50 (MRC-5 cells; MRC5, human lung fibroblasts) | IC50 (HeLa cells) | selectivity index (SI) HeLa (HeLa cells) | ΔTm F21T K+ [4] | ΔTm FEbr1T [5] | IC50 (HT-29 cells) | selectivity index (SI) HT-29 (HT-29 cells) | IC50 ([6]; Leishmania major) | selectivity index (SI) L. major [6] | ΔTm F21T Na+ [7] | ΔTm Fmt6363T [8] | IC50 ([9]; Trypanosoma brucei) | ΔTm FMycT [10] | selectivity index (SI) T. brucei [9] | other results
1 | CN(C)c1ccc(/C=C/c2sc3ccccc3[n+]2C)c2ccccc12.[I-] [2g] | 0.4 ± 0.1 °C | 4.01 ± 0.09 µM | 29.1 ± 1.05 µM | 0.14 | 9.7 ± 0.2 °C | 8.9 ± 0.5 °C | 89.5 ± 9.55 µM | 0.04 | 0.17 ± 0.04 µM | 23.9 | 3.4 ± 0.5 °C | 7.7 ± 0.3 °C | 0.02 ± 0.015 µM | 3.0 ± 1.1 °C | – | ΔTm [1]: 3.0 ± 1.1 °C; ΔTm ([3]; Na+ (100 mM NaCl)): 3.4 ± 0.5 °C
2 | CCCCCCCCCCCCCCCCOP(=O)([O-])OCC[N+](C)(C)C [miltefosine] | – | – | – | – | – | – | – | – | 5.71 ± 0.46 µM | – | – | – | – | – | – | IC50 (THP-1 cells; Homo sapiens): 55.19 ± 0.11 µM; IC50 ([11]; Leishmania major): 5.1 ± 0.56 µM; selectivity index (SI) THP-1 [11]: 10.82
3 | Cn1cccc1/C=C/c1sc2ccccc2[n+]1C.[I-] [compound 2e] | – | 9.4 ± 1.06 µM | 78 ± 8.26 µM | 0.12 | – | – | 76.4 ± 1.44 µM | 0.12 | 0.24 ± 0.029 µM | 39.6 | – | – | 2.29 ± 0.31 µM | – | 4.1 | –
4 | Cn1cccc1-c1ccc(/C=C/c2sc3ccccc3[n+]2C)s1 [compound 2f] | – | 3.68 ± 0.17 µM | – | – | – | – | – | – | 0.61 ± 0.092 µM | 6.0 | – | – | 0.61 ± 0.045 µM | – | 6.0 | –
5 | C[n+]1c(/C=C/c2ccc(-c3ccc(N(c4ccccc4)c4ccccc4)cc3)s2)sc2ccccc21 [compound 2i] | – | 3.88 ± 0.17 µM | – | – | – | – | – | – | 0.045 ± 0.012 µM | 86.2 | – | – | 1.83 ± 0.06 µM | – | 2.12 | –
6 | C[n+]1c(/C=C/c2cc3c4c(c2)CCCN4CCC3)sc2ccccc21.[I-] [compound 2h] | 0.9 ± 0.4 °C | – | 0.84 ± 0.01 µM | 0.09 | 16.9 °C | 14.1 °C | 1 ± 0.16 µM | 0.08 | – | – | 9.4 ± 0.3 °C | 15.0 ± 0.4 °C | 0.00026 ± 0.00017 µM | 12.6 ± 0.9 °C | – | –
7 | C[n+]1c(/C=C/c2ccccc2)sc2ccccc21.[I-] [compound 2a] | – | 2.02 ± 0.12 µM | – | – | – | – | – | – | 0.48 ± 0.11 µM | 4.2 | – | – | 0.37 ± 0.18 µM | – | 5.5 | –
8 | C[n+]1c(/C=C/c2ccc(-c3ccc(-c4ccc(N(c5ccccc5)c5ccccc5)cc4)cc3)o2)sc2ccccc21.[I-] [compound 2d] | 1.0 ± 0.1 °C | 3.24 ± 0.14 µM | 5.28 ± 0.11 µM | 0.62 | 18.5 °C | 20.5 °C | 3.79 ± 0.13 µM | 0.86 | 0.33 ± 0.017 µM | 9.8 | 22.9 ± 0.9 °C | 18.5 ± 0.9 °C | 0.01 ± 0.005 µM | 16.7 ± 0.7 °C | – | ΔTm [1]: 16.7 ± 0.7 °C; ΔTm [12]: 20.5 ± 1.3 °C; ΔTm ([3]; K+ (10 mM KCl), 90 mM LiCl): 18.5 ± 1.9 °C; ΔTm ([3]; Na+ (100 mM NaCl)): 22.9 ± 0.9 °C
9 | COS(=O)(=O)[O-].Cc1cc2c3c([n+](C)c4ccc(F)cc4c3c1)-c1cc(F)ccc1N2C [RHPS4, 3,11-Difluoro-6,8,13-Trimethyl-8H-Quino[4,3,2-Kl]Acridinium Methosulfate, reference compound] | – | – | – | – | – | – | – | – | – | 93.64 | – | – | – | – | 11.77 | IC50 (THP-1 cells): 214 ± 3.36 µM; IC50 (MRC-5 cells; human lung fibroblasts): 4.12 ± 0.52 µM; selectivity index (SI) MRC-5 ([11]; SI = IC50 MRC-5/IC50 L. major amastigotes): 137.33; selectivity index (SI) THP-1 [11]: 7,131; IC50 [11]: 0.03 ± 0.02 µM; IC50 [6]: 0.044 ± 0.015 µM; IC50 [9]: 0.35 ± 0.06 µM
10 | C[C@@H]1[C@H](O)[C@@H](C)/C=C/C=C/C=C/C=C/C=C/C=C/C=C/[C@H](O[C@@H]2O[C@H](C)[C@@H](O)[C@H](N)[C@@H]2O)C[C@@H]2O[C@](O)(C[C@@H](O)C[C@@H](O)[C@H](O)CC[C@@H](O)C[C@@H](O)CC(=O)O[C@H]1C)C[C@H](O)[C@H]2C(=O)O [AmB, Amphotericin B] | – | – | – | – | – | – | – | – | 1.92 ± 0.05 µM | – | – | – | – | – | – | IC50 (THP-1 cells; Homo sapiens): 9.89 ± 1.98 µM; IC50 ([11]; Leishmania major): 4.41 ± 1.96 µM; selectivity index (SI) THP-1 [11]: 2.24
11 | C[n+]1c(/C=C/c2ccc(N(c3ccccc3)c3ccccc3)cc2)sc2ccccc21.[I-] [compound 2c] | 0.7 ± 0.1 °C | – | 8.89 ± 1.59 µM | 0.58 | 12.7 ± 0.4 °C | 13.5 °C | 8.91 ± 0.88 µM | 0.58 | – | – | 9.4 ± 0.5 °C | 10.2 ± 0.5 °C | 0.34 ± 0.13 µM | 8.6 ± 1.0 °C | – | –
12 | CSc1ccc(OCc2ncc([N+](=O)[O-])n2C)cc1 [fexinidazole, reference compound] | – | – | – | – | – | – | – | – | – | – | – | – | 0.88 ± 0.02 µM | – | – | –
13 | Cc1ccc(C(=O)Nc2ccc(S(=O)(=O)O)c3cc(S(=O)(=O)O)cc(S(=O)(=O)O)c23)cc1NC(=O)c1cccc(NC(=O)Nc2cccc(C(=O)Nc3cc(C(=O)Nc4ccc(S(=O)(=O)O)c5cc(S(=O)(=O)O)cc(S(=O)(=O)O)c45)ccc3C)c2)c1 [suramin, reference compound] | – | – | – | – | – | – | – | – | – | – | – | – | 0.0042 ± 0.0003 µM | – | – | –
